Measured values taken from US12138256B2, “Treatment of cardiopulmonary disorders” (Bayer Aktiengesellschaft, priority 2021, dated 2024).
Several values for one entry are separate records, joined by “and”; a condition that tells them apart may be missing. Identical values can stand only once.

Assays:
[1] = system: anesthetized PAH minipigs; assay: PAH minipig model: intratracheal application of dry powder formulations and different hydrates (PennCentury insufflator); format: in vivo, Göttingen minipig; details: for PAP % changes vs. baseline: 375 μg/kg i.t., each animal
Text: After characterization of the effects of comparative example 11 after nebulization of compound solutions, in a further step the effects of crystalline forms of comparative example 11, e.g. sesquihydrate, e.g. example 6e on PAP and BP after inhaled application of different dry powder lactose formulations (table C2.1.8) were studied in anesthetized PAH minipigs.
As reference pure Lactose vehicle was applied in the beginning of each experiment.

[2] = system: thromboxane analog U46619 induced PAH in minipigs; assay: Haemodynamics (PAP, BP) in the anesthetized thromboxane challenged PAH minipig after inhaled (nebulized) application (C-2.1); format: in vivo, Göttingen minipig; details: 10 μg/kg nominal dose, inhaled, n = 3
Experimental: Experiments were carried out in anesthetized Göttingen minipigs, anesthetized rats and conscious, telemetrically instrumented dogs. Acute pulmonary hypertension was induced for example by infusion of a thromboxane A2 analogon, by acute hypoxia treatment or hypoxia treatment over a number of weeks and/or by administration of monocrotaline. Test substances were applied via nebulization using the Nebutec® or Aeroneb® Pro nebulizer system, and/or by means of powder and/or solution applicators for experimental intratracheal administration (Liquid MicroSprayer®, Dry Powder Insufflator™, MicroSprayer®, Penn-Century Inc., Wyndmoor, PA, USA) or after solid nebulization inserted into the inspiration arm of the ventilation. Compounds were employed as solids or solutions depending on the molecular structure and the technical possibility depending on the experiment. The haemodynamic signals were recorded and evaluated by means of pressure transducers/amplifiers (Combitransducer B. Braun, Melsungen, Germany or CardioMEMS Inc., Atlanta, GA, USA) and Ponemah® or CardioMems® as data aquisition software. After long-term experiments (for example monocrotaline rat), it is also possible to carry out a histological evaluation.
Healthy Gottingen Minipigs® Ellegaard (Ellegaard, Denmark) of both sexes and having a weight of 2-6 kg were used. The animals were sedated by i.m. administration of about 25 mg/kg ketamine and about 10 mg/kg azaperone. Anaesthesia was initiated by i.v. administration of about 2 mg/kg ketamine and about 0.3 mg/kg midazolam. Maintenance of anaesthesia was by i.v. administration of about 7.5-30 mg/kg/h ketamine and about 1-4 mg/kg/h midazolam (rate of infusion 1-4 ml/kg/h) and about 150 μg/kg/h pancuronium bromide (for example Pancuronium-Actavis). After intubation, the animals were ventilated by the ventilator at a constant respiratory volume (10-12 ml/kg, 35 breaths/min; Avea®, Viasys Healthcare, USA, or Engstrom Carestation, GE Healthcare, Freiburg, Germany) such that an end-tidal CO2 concentration of about 5% was achieved. Ventilation was performed with room air, enriched with about 40% oxygen (normoxia). For the measurement of the haemodynamic parameters such as pulmonary arterial pressure (PAP), blood pressure (BP) and heart rate (HR), catheters were inserted into the carotid artery to measure the blood pressure, and a Swan-Ganz® catheter was introduced in a flow-directed manner via the jugular vein into the pulmonary artery. The haemodynamic signals were recorded and evaluated by means of pressure transducers (Combitransducer, B. Braun, Melsungen, Germany)/amplifiers and Ponemah® as data aquisition software.
After the instruments have been placed into the animals, continuous infusion of a thromboxane A2 analog was initiated to increase the pulmonary arterial pressure. […] D0400, or Cayman Chemical Company, cat. no. 16440), dissolved in physiological saline, were infused to achieve an increase of the mean pulmonary arterial pressure to values of over 25 mmHg. 30 minutes after the start of the infusion, a plateau was reached, and the experiment was started.
The test substances were administered as i.v. infusion or by inhalation. For the preparation of the solution for inhalation, the following procedure was adopted: For an animal having a weight of 4 kg, to prepare the stock solution (300 μg/kg), 1.2 mg of the test compound were weighed out and dissolved in a total volume of 3 ml (1% DMSO, 99% 0.2% strength citric acid solution, 1 N aqueous sodium hydroxide solution to adjust the pH to 8). The solution was then diluted to the concentration employed using 0.2% strength citric acid which had been adjusted to pH 8 beforehand with aqueous sodium hydroxide solution. In each test, 3 ml of the solution of test compound per 4 kg animal were nebulized in the inhalation arm of the respiratory circuit using the Aeroneb® Pro nebulizer system. The mean nebulization time was about 7 min from the start of the nebulization.

Question: O.O.O.O=C(O)c1ccc(CCN(CCc2ccccc2OCc2ccc(-c3ccc(C(F)(F)F)cc3)cc2Cl)[C@H]2CCCc3nc(C(=O)O)ccc32)cc1.O=C(O)c1ccc(CCN(CCc2ccccc2OCc2ccc(-c3ccc(C(F)(F)F)cc3)cc2Cl)[C@H]2CCCc3nc(C(=O)O)ccc32)cc1 [example 6e, (5S)-{[2-(4-Carboxyphenyl)ethyl][2-(2-{[3-chloro-4′-(trifluoromethyl)biphenyl-4-yl]methoxy}phenyl)-ethyl]amino}-5,6,7,8-tetrahydroquinoline-2-carboxylic acid sesquihydrate] was tested. Which “efficacy with regard to PAP reduction as well as systemic BP reduction” value ([1]; 1.5 mg/4 kg (=375 μg/kg) intratracheally, micronized) did it give?
Answer: Its value is “comparable efficacy”.

Question: And the “effect on PAP and BP after i.t. application” value ([1]; lactose formulation I 7.5 μg/kg, II 22.5 μg/kg, micronized sesquihydrate 375 μg/kg, n=3)?
Answer: The value was “decrease of PAP without any effects on BP”.

Question: What about the “time to maximum effect on PAP after i.t. application” value ([1]; lactose formulation I 7.5 μg/kg, lactose formulation II 22.5 μg/kg, micronized sesquihydrate 375 μg/kg) of the same molecule?
Answer: Its value is “approximately 80 min”.

Question: What about the “PAP % changes vs. baseline” value ([1]; time 80) of the same molecule?
Answer: The value was 100.0%.

Question: And the “PAP % changes vs. baseline” value ([1]; time 90, sesquihydrate)?
Answer: The value was 98.9% and 103.6% and 99.8%.

Question: What about the “PAP % changes vs. baseline” value ([1]; time 100, sesquihydrate) of the same molecule?
Answer: The value was 99.5% and 101.4% and 97.3%.

Question: What about the “PAP % changes vs. baseline” value ([1]; time 110, sesquihydrate) of the same molecule?
Answer: The value was 89.3% and 98.7% and 86.8%.

Question: What about the “PAP % changes vs. baseline” value ([1]; time 120, sesquihydrate) of the same molecule?
Answer: Its value is 84.0% and 95.6% and 75.7%.

Question: And the “PAP % changes vs. baseline” value ([1]; time 130, sesquihydrate)?
Answer: Its value is 78.9% and 93.7% and 70.2%.

Question: And the “PAP % changes vs. baseline” value ([1]; time 140, sesquihydrate)?
Answer: Its value is 75.2% and 91.8% and 67.5%.

Question: What about the “PAP % changes vs. baseline” value ([1]; time 150, sesquihydrate) of the same molecule?
Answer: Its value is 74.0% and 76.0% and 65.4%.

Question: What about the “PAP % changes vs. baseline” value ([1]; time 160, sesquihydrate) of the same molecule?
Answer: The value was 71.0% and 79.5% and 65.9%.

Question: And the “PAP % changes vs. baseline” value ([1]; time 170, sesquihydrate)?
Answer: Its value is 68.5% and 74.3% and 61.5%.

Question: What about the “PAP % changes vs. baseline” value ([1]; time 180, sesquihydrate) of the same molecule?
Answer: The value was 63.2% and 80.8% and 62.0%.

Question: What about the “PAP % changes vs. baseline” value ([1]; time 190, sesquihydrate) of the same molecule?
Answer: The value was 61.5% and 80.8% and 58.6%.

Question: What about the “PAP % changes vs. baseline” value ([1]; time 200, sesquihydrate) of the same molecule?
Answer: Its value is 62.3% and 80.3% and 60.2%.

Question: What about the “PAP % changes vs. baseline” value ([1]; time 210, sesquihydrate) of the same molecule?
Answer: The value was 61.0% and 80.7% and 59.4%.

Question: And the “PAP % changes vs. baseline” value ([1]; time 220, sesquihydrate)?
Answer: Its value is 59.5% and 86.3% and 57.8%.

Question: And the “PAP % changes vs. baseline” value ([1]; time 230, sesquihydrate)?
Answer: The value was 58.6% and 82.6% and 57.8%.

Question: What about the “PAP % changes vs. baseline” value ([1]; time 240, sesquihydrate) of the same molecule?
Answer: Its value is 59.3% and 81.5% and 57.6%.

Question: What about the “PAP % changes vs. baseline” value ([1]; time 250, sesquihydrate) of the same molecule?
Answer: The value was 59.3% and 82.2% and 56.1%.

Question: And the “PAP % changes vs. baseline” value ([1]; time 260, sesquihydrate)?
Answer: The value was 58.8% and 82.7% and 57.6%.

Question: What about the “PAP % changes vs. baseline” value ([1]; time 270, sesquihydrate) of the same molecule?
Answer: The value was 59.9% and 78.3% and 55.4%.

Question: And the “PAP % changes vs. baseline” value ([1]; time 280, sesquihydrate)?
Answer: The value was 58.4% and 78.3% and 55.9%.

Question: And the “PAP % changes vs. baseline” value ([1]; time 290, sesquihydrate)?
Answer: The value was 57.4% and 79.6% and 53.9%.

Question: What about the “PAP % changes vs. baseline” value ([1]; time 300, sesquihydrate) of the same molecule?
Answer: Its value is 60.1% and 78.7% and 54.5%.

Question: What about the “PAP % changes vs. baseline” value ([1]; time 310, sesquihydrate) of the same molecule?
Answer: Its value is 58.4% and 77.6% and 53.7%.

Question: And the “PAP % changes vs. baseline” value ([1]; time 320, sesquihydrate)?
Answer: Its value is 61.8% and 76.3% and 55.1%.

Question: What about the “PAP % changes vs. baseline” value ([1]; time 330, sesquihydrate) of the same molecule?
Answer: The value was 61.3% and 74.8% and 53.0%.

Question: How did the “PAP % changes vs prevalue, mean” value ([2]; time 0 min) turn out when CC#CCC(C)[C@H](O)/C=C/[C@@H]1[C@H]2C/C(=C/CCCC(=O)O)C[C@H]2C[C@H]1O (some centres unmarked) [Ventavis ®] was run?
Answer: The value was 0%.

Question: And the “PAP % changes vs prevalue, mean” value ([2]; time 10 min)?
Answer: The value was −30.3%.

Question: What about the “PAP % changes vs prevalue, mean” value ([2]; time 20 min) of the same molecule?
Answer: Its value is −20.7%.

Question: What about the “PAP % changes vs prevalue, mean” value ([2]; time 30 min) of the same molecule?
Answer: Its value is −6.9%.

Question: What about the “PAP % changes vs prevalue, mean” value ([2]; time 40 min) of the same molecule?
Answer: The value was 1.7%.

Question: What about the “PAP % changes vs prevalue, mean” value ([2]; time 50 min) of the same molecule?
Answer: The value was 4.9%.
